Key:
[1] = system: malonic dialdehyde (MDA) production in living human skin explants; assay: Ex-vivo study on living human skin explants: MDA investigation of the culture medium (TBAR, spectrofluorimetry); type: cell-based; details: for MDA concentration in the culture medium of the explant treated with substance and the irritant (average) / MDA concentration in the culture medium of the explant treated without irritant, but with substance (average): 0.5% solution in ethanol (gel D as such), day 4; for MDA concentration in the culture medium of the explant treated with substance and the irritant (average): 2 mg/cm^2 once daily D0-D3, irritant (metals/heavy metals + 0.1% diesel particles PM2.5) 24 h, irritant only 143.6, untreated 98.3; for Average MDA concentration in the presence of substance attributable to the irritant alone: difference with irritant minus without irritant, irritant alone without substance 45.3; for Lower MDA production (change) versus irritant only: explants with substance and irritant, compared with explant treated only with irritant; for MDA concentration in the culture medium of the explant treated without irritant, but with substance (average): no irritant, once daily D0-D3, untreated 98.3; for Hindrance of MDA production standardised to the amount of MDA released only by the irritant: standardised to MDA attributable to irritant alone (45.3 nmol/l)
Protocol: (§1) An ex-vivo study was carried out on skin explants from a person […] (P1922-AB54). The explants are kept in a functioning state in a BEM culture medium (explants medium from BIO-EC) at 37° C. in a moist atmosphere containing 5% of CO2. 4 explants are used in each case in an experimental series of a substance, the control or the reference.
(§2) Compounds A and B to be investigated are employed in 0.5% solution in ethanol. The influence of ethanol on the explant is investigated in parallel (compound C=ethanol). The reference employed is the gel from DECLÉOR with the article number 56300 (gel D; decléor gelée hydratante anti-pollution), which is known for its protection of the skin against chemicals, heavy metals and diesel particles. The control used is an untreated sample which only comes into contact with the culture medium.
(§3) The explants are treated once daily for 4 days (day 0=D0, day 1=D1, day 2=D2 and day 3=D3) with the solutions to be tested containing compound A and B as well as compound C and gel D (2 μl per explant corresponding to 2 mg/cm^2). On D3, the solutions to be tested and the reference are treated 4 hours before application of the irritant.
(§4) On D3, the explants are treated with the irritant containing the metals/heavy metals and diesel particles, as described above, where a paper disc with a diameter of 9 mm is soaked with 30 μl of the irritant. The irritant acts on the respective explant for 24 hours.
The culture medium of the treated explants is investigated for the compound MDA. MDA stands for malonic dialdehyde (propanedial) and is a known marker for oxidative stress, as described above.
The culture medium of each investigated explant is mixed with a salt medium (HBBS Medium Hank's Balanced Salts) and a TBAR solution and heated in a water bath at 80° C. for 15 minutes. The TBAR solution contains thiobarbituric acid, hydrochloric acid and trichloroacetic acid. Many substances which are unrelated to the lipoperoxidation react with the thiobarbituric acid, for example glucose. After cooling, malonic dialdehyde (MDA) is extracted with butanol in a liquid/liquid extraction, and the then investigated by spectrofluorimetry (excitation 515 nm, emission: 550 nm). The MDA concentration indicated below is quoted in nmol/l.
1. For interpretation of the results, it is taken into account that the culture medium of the untreated explants (without irritant and without compounds A, B, C and gel D) also contains MDA on day 4.
For analysis of the results, this amount of MDA present on average in the untreated explants is therefore subtracted from the values obtained for the explant samples in order to determine the influence of MDA production owing to the irritant.

[2] = system: epidermis of living human skin explants; assay: Ex-vivo study on living human skin explants: histological investigation (Masson's trichrome staining); type: cell-based; details: for Epidermal morphological change compared with the untreated sample: explants treated with substance and the irritant, day 4, Masson staining
Protocol: as §1, §2, §3, §4
On day 4 (D4), three explants are collected for each of the compounds to be investigated. Each explant is divided, and one part is frozen at −80° C., the second half is fixed in a buffered formol solution (formaldehyde solution). The fourth explant remains frozen at −80° C.
The explants fixed for 24 hours are dehydrogenated and impregnated in paraffin. Areas with a thickness of 5 μm are then cut and investigated under the microscope (for example Leica DMLB or Olympus BX43). Corresponding images are produced, using the Masson staining method (Masson's trichrome staining, Goldner variant), a standard colouring method in histology. […]

interleukin 8 = details: skin irritated by phorbol 12-myristate 13-acetate (PMA); cited from earlier work

COc1cc(C=C(C(=O)OC(C)C)C(=O)OC(C)C)ccc1O [compound B, diisopropyl 3-methoxy-4-hydroxybenzylidenemalonate]
MDA concentration in the culture medium of the explant treated with substance and the irritant (average) [1]: 135.5 nmol/L | Average MDA concentration in the presence of substance attributable to the irritant alone [1]: 41.9 nmol/L | Lower MDA production (change) versus irritant only [1]: 6% | MDA concentration in the culture medium of the explant treated without irritant, but with substance (average) [1]: 93.6 nmol/L | Hindrance of MDA production standardised to the amount of MDA released only by the irritant [1]: 8% | Epidermal morphological change compared with the untreated sample [2]: an epidermal morphological change | Worsening of the condition of the epidermis (score of detectable changes) ([2]; explants with substance and irritant, compared with untreated control and with compound A plus irritant): about 55% | Excretion of cytokines, in particular interleukin 8 (interleukin 8): reduces the excretion of cytokines

CCCCC(CC)COC(=O)C(=Cc1cc(OC)c(O)c(OC)c1)C(=O)OCC(CC)CCCC (centres unmarked) [compound A, di(2-ethylhexyl) 3,5-dimethoxy-4-hydroxybenzylidenemalonate]
MDA concentration in the culture medium of the explant treated with substance and the irritant (average) [1]: 129.0 nmol/L | Average MDA concentration in the presence of substance attributable to the irritant alone [1]: 34.3 nmol/L | Lower MDA production (change) versus irritant only [1]: 10% | MDA concentration in the culture medium of the explant treated without irritant, but with substance (average) [1]: 94.7 nmol/L | Hindrance of MDA production standardised to the amount of MDA released only by the irritant [1]: 24% | Epidermal morphological change compared with the untreated sample [2]: no epidermal change

Source: US20210161783A1, “USE OF SPECIFIC BENZYLIDENE MALONATES FOR PROTECTING THE SKIN FROM CHEMICALLY INDUCED STRESS” (MERCK PATENT GMBH, priority 2018, published 2021)
